# What was measured:
# Format in all cases: in vivo, Zea mays
# corn [1] = assay: Ethephon applied to corn at stage V6, Nova Mutum; chlorantraniliprole and cyproconazole+azoxystrobin added in all treatments; conditions: for Increased Yield: 100,000 plants/ha vs control at normal density
# Protocol: Example 2—Effect of Growth Regulator Ethephon Applied to Corn at the Stage of Development V6
# (§1) In the moment of the application, the insecticide chlorantraniliprole (25 g ha^−1 a.i.) and the fungicide cyproconazole+azoxystrobin (24+60 g ha^−1 a.i.) were added in all treatments, including the control.
# corn [2] = assay: Ethephon applied to corn at stage V8, Nova Mutum; methomyl and pyraclostrobin+epoxyconazole added in all treatments; conditions: for Increased Yield: 100,000 plants/ha vs control at normal density
# Protocol: Example 1—Effect of Growth Regulator Ethephon Applied to Corn at the Stage of Development V8
# (§2) In the moment of the application, the insecticide methomyl (215 g ha^−1 a.i.) and the fungicide pyraclostrobin+epoxyconazole (99.75+37.5 g ha^−1 a.i.) were added in all treatments, including the control.
# corn [3] = assay: BF 428-5 applied to corn at stage V6, Nova Mutum; chlorantraniliprole and cyproconazole+azoxystrobin added in all treatments; conditions: V6; 30 DAA; all treatments (Table 11)
# Protocol: Example 6—Effect of Growth Regulator BF 428-5 Applied to Corn at the Stage of Development V6
# as §1
# corn [4] = assay: Ethephon+cyclanilide applied to corn at stage V8, Nova Mutum; methomyl and pyraclostrobin+epoxyconazole added in all treatments; conditions: estimation at 100,000 plants per hectare vs control at normal density of sowing (Table 6)
# Protocol: Example 3—Effect of Growth Regulator Ethephon+Cyclanilide Applied to Corn at the Stage of Development V8
# as §2
# corn plants = assay: Growth regulator applied in the late vegetative stage of corn (V6-V9), inventors' finding; conditions: application in the late vegetative stage (V6-V9)
# Description: The solution to such problems related to corn crops would be to limit plant growth through the use of plant growth regulators, commonly used in other crops (cotton, wheat), but without any tradition in corn crop in order to provide the cultivation of high densities of corn plants per hectare with a view to achieving considerable increase in the crop's yield potential, as well as to improving pest and disease control in the crop.
compound,measurement,setting,value
"O=P(O)(O)CCCl [Ethephon, 2-chloroethylphosphonic acid]",effects on the corn plant,corn [1]; V6,"reduction in shoot length, increased formation of adventitious roots, strengthening of the stem, strengthening of the root system, increased ventilation in the culture, proper development of male and female inflorescences"
same,effect on length and diameter of ears of corn,corn [1]; V6 (Table 3),reduces
same,yield reduction / increase,corn [1]; V6 (Table 3),"yield reduction was significant for some treatments, and the yield increase was also significant for some treatments"
same,shoot length,"corn [1]; V6, 30 DAA, all treatments with application of ethephon (Table 3)",less than or equal to 152.5 cm
same,Ear Diameter,"corn [1]; V6, 216 g ha^−1 a.i.",37.9 mm
same,Ear Length,"corn [1]; V6, 216 g ha^−1 a.i.",21.4 cm
same,Yield,"corn [1]; V6, 216 g ha^−1 a.i.",1906.7 kg/ha
same,Height (shoot length),"corn [1]; V6, 216 g ha^−1 a.i., 30 DAA",144.3 cm
same,"Population of corn plants 60,000 plants/ha, kg/corn plant","corn [1]; V6, 216 g ha^−1 a.i.",0.032 kg/corn plant
same,"Population of corn plants 100,000 plants/ha, kg/corn plant","corn [1]; V6, 216 g ha^−1 a.i.",0.032 kg/corn plant
same,"Yield estimates 100,000 plants/ha","corn [1]; V6, 216 g ha^−1 a.i.",3177.8 kg/ha
same,Increased Yield,"corn [1]; V6, 216 g ha^−1 a.i.",10.1%
same,Ear Diameter,"corn [1]; V6, 360 g ha^−1 a.i.",36.7 mm
same,Ear Length,"corn [1]; V6, 360 g ha^−1 a.i.",21.1 cm
same,Yield,"corn [1]; V6, 360 g ha^−1 a.i.",3553.3 kg/ha
same,Height (shoot length),"corn [1]; V6, 360 g ha^−1 a.i., 30 DAA",148.5 cm
same,"Population of corn plants 60,000 plants/ha, kg/corn plant","corn [1]; V6, 360 g ha^−1 a.i.",0.059 kg/corn plant
same,"Population of corn plants 100,000 plants/ha, kg/corn plant","corn [1]; V6, 360 g ha^−1 a.i.",0.059 kg/corn plant
same,"Yield estimates 100,000 plants/ha","corn [1]; V6, 360 g ha^−1 a.i.",5922.2 kg/ha
same,Increased Yield,"corn [1]; V6, 360 g ha^−1 a.i.",105.2%
same,Ear Diameter,"corn [1]; V6, 576 g ha^−1 a.i.",37.7 mm
same,Ear Length,"corn [1]; V6, 576 g ha^−1 a.i.",23.3 cm
same,Yield,"corn [1]; V6, 576 g ha^−1 a.i.",3540.0 kg/ha
same,Height (shoot length),"corn [1]; V6, 576 g ha^−1 a.i., 30 DAA",144.9 cm
same,"Population of corn plants 60,000 plants/ha, kg/corn plant","corn [1]; V6, 576 g ha^−1 a.i.",0.059 kg/corn plant
same,"Population of corn plants 100,000 plants/ha, kg/corn plant","corn [1]; V6, 576 g ha^−1 a.i.",0.059 kg/corn plant
same,"Yield estimates 100,000 plants/ha","corn [1]; V6, 576 g ha^−1 a.i.",5900.0 kg/ha
same,Increased Yield,"corn [1]; V6, 576 g ha^−1 a.i.",104.4%
same,yield increases,"corn [1]; V6, estimation at 100,000 plants per hectare vs control at normal density of sowing (Table 4)",more than 10.1%
same,effects on the corn plant,corn [2]; V8,"reduction in shoot length, increased formation of adventitious roots, strengthening of the stem, strengthening of the root system, increased ventilation in the culture, proper development of male and female inflorescences"
same,effect on length and diameter of ears of corn,corn [2]; V8 (Table 1),reduces
same,yield reduction,corn [2]; V8 (Table 1),not significant
same,shoot length,"corn [2]; V8, 30 DAA, all treatments with application of ethephon (Table 1)",less than or equal to 159.1 cm
same,Ear Diameter,"corn [2]; V8, 216 g ha^−1 a.i.",50.4 mm
same,Ear Length,"corn [2]; V8, 216 g ha^−1 a.i.",25.8 cm
same,Yield,"corn [2]; V8, 216 g ha^−1 a.i.",4335.6 kg/ha
same,Height (shoot length),"corn [2]; V8, 216 g ha^−1 a.i., 30 DAA",157.3 cm
same,"Population of corn plants 60,000 plants/ha, kg/corn plant","corn [2]; V8, 216 g ha^−1 a.i.",0.072 kg/corn plant
same,"Population of corn plants 100,000 plants/ha, kg/corn plant","corn [2]; V8, 216 g ha^−1 a.i.",0.072 kg/corn plant
same,"Yield estimates 100,000 plants/ha","corn [2]; V8, 216 g ha^−1 a.i.",7226.0 kg/ha
same,Increased Yield,"corn [2]; V8, 216 g ha^−1 a.i.",42.4%
same,Ear Diameter,"corn [2]; V8, 360 g ha^−1 a.i.",51.6 mm
same,Ear Length,"corn [2]; V8, 360 g ha^−1 a.i.",25.6 cm
same,Yield,"corn [2]; V8, 360 g ha^−1 a.i.",4253.3 kg/ha
same,Height (shoot length),"corn [2]; V8, 360 g ha^−1 a.i., 30 DAA",153.9 cm
same,"Population of corn plants 60,000 plants/ha, kg/corn plant","corn [2]; V8, 360 g ha^−1 a.i.",0.071 kg/corn plant
same,"Population of corn plants 100,000 plants/ha, kg/corn plant","corn [2]; V8, 360 g ha^−1 a.i.",0.071 kg/corn plant
same,"Yield estimates 100,000 plants/ha","corn [2]; V8, 360 g ha^−1 a.i.",7088.8 kg/ha
same,Increased Yield,"corn [2]; V8, 360 g ha^−1 a.i.",39.7%
same,Ear Diameter,"corn [2]; V8, 576 g ha^−1 a.i.",50.7 mm
same,Ear Length,"corn [2]; V8, 576 g ha^−1 a.i.",25.4 cm
same,Yield,"corn [2]; V8, 576 g ha^−1 a.i.",4680.0 kg/ha
same,Height (shoot length),"corn [2]; V8, 576 g ha^−1 a.i., 30 DAA",152.2 cm
same,"Population of corn plants 60,000 plants/ha, kg/corn plant","corn [2]; V8, 576 g ha^−1 a.i.",0.078 kg/corn plant
same,"Population of corn plants 100,000 plants/ha, kg/corn plant","corn [2]; V8, 576 g ha^−1 a.i.",0.078 kg/corn plant
same,"Yield estimates 100,000 plants/ha","corn [2]; V8, 576 g ha^−1 a.i.",7800.0 kg/ha
same,Increased Yield,"corn [2]; V8, 576 g ha^−1 a.i.",53.7%
same,yield increases,"corn [2]; V8, estimation at 100,000 plants per hectare vs control at normal density of sowing (Table 2)",more than 39%
same,shoot length,corn [3],less than or equal to 206.0 cm
same,yield increases,corn [4],more than 44.4%
same,root system,corn plants,stronger root system
